The values that follow are results of earlier work, collected in patent US9167842B2, “Functional food preparation and use thereof” (priority 2010, dated 2015).

Molecules are shown by their SMILES. Where two headings read alike, the source gives them in different places.

The conditions of data set [1]: oral, 32 hypercholesterolemic patients, three months.
The conditions of data set [2]: daily folic acid supplement.

With `COc1ccc2cc3[n+](cc2c1OC)CCc1cc2c(cc1-3)OCO2` [berberine], in data set [1], the “reduction of LDL cholesterol” value was 25%, the “reduction of plasma cholesterol” value is recorded as 29% and the reduction of triglycerides is on record as 35%.
Turning to `Nc1nc2ncc(CNc3ccc(C(=O)N[C@@H](CCC(=O)O)C(=O)O)cc3)nc2c(=O)[nH]1` [folic acid], the values for the reduction of homocysteine result in data set [2] and in data set [2] (dose doubled) were “about 60%” and “about 90%”, respectively.
